The data set relates to stratum corneum of the cultured artificial skin (human epidermal keratinocytes). Briefly: Test Example 2: transdermal penetration of hydrophobic fluorescent dye (Nile red) into artificial skin. The data set is classed as in vitro ADME. The following applies: after a night, stratum corneum average thickness 10.73 μm, FIG. 7. The procedure:
The following experiment was conducted in order to investigate whether the core-shell network structure according to an exemplary embodiment of the present disclosure serves as a carrier facilitating the transdermal absorption of an active substance.
First, a core-shell network solution (Example 3) was prepared in the same manner as in Example 2 except that, instead of the red ginseng saponin as the active substance, a hydrophobic fluorescent dye (Nile red, Sigma-Aldrich) was encapsulated at a concentration of […]. The contents of zein, pullulan and pectin of Example 3 based on the total weight of the composition were 0.01 wt %, 0.02 wt % and 0.002 wt %, respectively. […]
The cells were exposed to the air by removing the medium except for the part occupied by the cells. […] After freezing using an OCT (Cryomatrix, Thermo Scientific) and slicing to a thickness of 10 μm, the frozen sections were imaged with a fluorescence microscope (BX53, Olympus, Japan) and a microscopic digital camera (DP72, Olympus, Japan). […] To compare the effect of the present disclosure, the stratum corneum of the skin was treated only with a hydrophobic fluorescent dye in Comparative Example 3, and the degree of penetration of the hydrophobic fluorescent dye was analyzed in the same manner.

Regarding `CCN(CC)c1ccc2nc3c4ccccc4c(=O)cc-3oc2c1` [Comparative Example 3, Nile red], the “penetration depth of the dye into the stratum corneum, on average” value is “about 3.62 μm”.

Values taken from patent US11759430B2, “Active substance carrier comprising biopolymer” (AMOREPACIFIC CORPORATION, priority 2019, dated 2023).
